We go through seven molecules from PMC7203344, “Sirtuin 1 Inhibiting Thiocyanates (S1th)—A New Class of Isotype Selective Inhibitors of NAD^+ Dependent Lysine Deacetylases” (Frontiers in Oncology, 2020).

Assay [1] deals with T1, Sirt1 (Homo sapiens, UniProt Q96EB6).
T1 construct: made in house; host or cells: E. coli BL21 Star (DE3)
T1 sequence (Q96EB6 134-747): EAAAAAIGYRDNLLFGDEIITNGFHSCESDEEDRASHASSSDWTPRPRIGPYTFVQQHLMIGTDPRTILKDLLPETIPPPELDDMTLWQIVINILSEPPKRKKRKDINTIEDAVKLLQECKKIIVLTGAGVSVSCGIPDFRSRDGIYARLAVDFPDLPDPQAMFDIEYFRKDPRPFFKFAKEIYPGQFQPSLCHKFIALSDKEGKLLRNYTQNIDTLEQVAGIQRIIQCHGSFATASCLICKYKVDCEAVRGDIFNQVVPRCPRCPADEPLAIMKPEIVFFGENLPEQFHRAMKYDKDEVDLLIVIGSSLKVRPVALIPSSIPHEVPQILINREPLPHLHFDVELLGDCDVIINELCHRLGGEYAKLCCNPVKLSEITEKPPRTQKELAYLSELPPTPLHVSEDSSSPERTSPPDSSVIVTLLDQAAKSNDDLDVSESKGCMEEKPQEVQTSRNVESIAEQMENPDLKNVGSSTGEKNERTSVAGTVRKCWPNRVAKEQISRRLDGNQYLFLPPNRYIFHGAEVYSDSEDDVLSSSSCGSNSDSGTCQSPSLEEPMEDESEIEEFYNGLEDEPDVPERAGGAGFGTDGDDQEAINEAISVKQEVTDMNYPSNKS
Description: Fluorescent thermal shift assay (FTSA), Sirt1. It counts as binding. Here is the method: In a 96-well plate (Hard-Shell® PCR-plates, 96-well, thin-wall, BioRAD, USA) 14 μL Sirt1_134−747 in assay buffer (0.3 mg/mL final assay concentration, 50 mM Tris/HCl, 137 mM NaCl, 2.7 mM KCl, 1 mM MgCL2, pH 8.0) were mixed with 1 μL inhibitor in DMSO (100 μM) or DMSO [final assay concentration 5% (v/v)] as a control and 5 μL SyproOrange (1:100 in assay buffer). The fluorescence intensity was monitored during a constant increase of temperature from 20 to 95°C, 1 K per 20 s, using a real-time-PCR-machine (C1000 TouchTM Thermal Cycler, CFX96TM Real-Time System, BioRAD, USA). Melting temperatures were calculated via GraphPad Prism according to a published procedure ([60]).

For assay [2], the target named is T1, Sirt1. Description: Homogeneous ZMAL-based fluorescence assay, Sirt1. In kind it is biochemical. The protocol: (§1) Recombinant human Sirt5_37−310 was purchased readily in Tris Buffer [25 mM Tris, 100 mM NaCl, 5 mM DTT, 10% glycerol (v/v)] from Enzo Life Sciences (NY, USA). Human Sirt3_118−395 was expressed and purified as described previously ([54]). For expression of human Sirt1_134−747 and Sirt2_56−356 chemically competent cells of E. coli BL21 Star (DE3) were transformed with the expression vectors pET30S-hSirt1_134−747 or pET30S-hSirt2_56−356. Bacteria were grown at 37°C in 2×YT medium supplemented with 50 μg·mL^−1 of kanamycin to an OD600 of 0.6. Then isopropyl-β-D-1-thiogalactopyranoside (IPTG) was added to a final concentration of 1 mM to induce gene expression. After further cultivation at 20°C for 12 h, the cells were harvested by centrifugation for 15 min at 5,000 g. The cells were resuspended in lysis buffer [100 mM Tris/HCl buffer at pH 8.0, 150 mM NaCl and 10% (v/v) glycerol] and disrupted by ultrasonication (Branson Digital Sonifier 250) at 70% amplitude for 10 min (3 s working, 10 s pause). The crude extract was cleared by centrifugation at 100,000 g for 1 h, and the supernatant was loaded onto a Strep-Tactin Superflow cartridge (5 ml bed volume, IBA Lifescience, Germany). Target proteins were eluted with lysis buffer containing 5 mM D-Desthiobiotin (IBA Lifescience, Germany) and further separated by size-exclusion chromatography (Superdex S200 26/60, GE Healthcare, IL, USA) equilibrated in Tris/HCl buffer (20 mM, 150 mM NaCl, pH 8.0). Pure protein was concentrated by ultrafiltration, flash-frozen in liquid nitrogen and stored at −80°C until further use. Identity as well as purity were verified by SDS-PAGE ([55]) and protein concentration was determined by the bicinchoninic acid (BCA) method, using bovine serum albumin (BSA) as a standard ([56]). Deacetylase activity was confirmed to be NAD^+-dependent and could be inhibited with the physiological sirtuin inhibitor nicotinamide.
(§2) All compounds were tested in the trypsin-coupled high-throughput ZMAL-assay in black 96-well plates (OptiPlateTM−96F, black, 96 well, Pinch bar design, PerkinElmer, USA), using ZMAL (Z-Lys(acetyl)-AMC) as a substrate ([57]). Sirt1_134−747, Sirt2_56−356, and Sirt3_118−395 were mixed with 5 μL substrate (10.5 μM final assay concentration, diluted from a […] stock in DMSO) and 3 μL Inhibitor in DMSO at various concentrations or DMSO as a control [final DMSO concentration 5% (v/v)]. The mixture was supplemented with assay buffer (50 mM Tris/HCl, 137 mM NaCl, 2.7 mM KCl, 1 mM MgCL2, pH 8.0) to a total volume of 55 μL. Enzyme concentration was adjusted to get a final conversion of 20–30%. Addition of 5 μL NAD^+ (6 mM in assay buffer, final assay concentration of 500 μM) initiated the catalytic reaction and the plates were incubated at 37°C for 4 h with agitation at 140 rpm. The catalytic reaction was stopped by addition of 60 μL stop solution [50 mM Tris, 100 mM NaCl, 6.7% (V/V) DMSO, 5.5 U/μL trypsin, 8 μM nicotinamide, pH 8.0]. The plate was again incubated at 37°C and 140 rpm for 20 min to release free AMC from the deacetylated substrate by trypsin digestion. Afterwards, fluorescence intensity was measured in a microplate reader (λEx = 390 nm, λEm = 460 nm, BMG POLARstar Optima, BMG Labtech, Germany). An enzyme-free blank control and a 100% conversion control containing AMC instead of ZMAL were measured in addition. Inhibition was calculated in % in relation to a DMSO control after blank signal subtraction and IC50 values were determined using a non-linear regression to fit the dose-response curve with OriginPro 9G (OriginLab, USA). Pre-tests as well as IC50 determination was carried out at least twice in duplicates.

The next assay deals with T2, human Sirt2 (Homo sapiens, UniProt Q8IXJ6).
T2 construct: made in house; host or cells: E. coli BL21 Star (DE3)
T2 sequence (Q8IXJ6 56-356): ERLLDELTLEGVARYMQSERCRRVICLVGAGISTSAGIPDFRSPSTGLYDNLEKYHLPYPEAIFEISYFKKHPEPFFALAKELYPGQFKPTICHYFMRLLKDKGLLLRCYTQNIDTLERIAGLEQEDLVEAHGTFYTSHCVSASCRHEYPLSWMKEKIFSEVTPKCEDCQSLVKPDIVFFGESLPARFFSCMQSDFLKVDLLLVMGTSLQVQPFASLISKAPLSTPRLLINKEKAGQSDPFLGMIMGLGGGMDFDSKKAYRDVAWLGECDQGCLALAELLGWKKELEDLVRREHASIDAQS
Description: Homogeneous ZMAL-based fluorescence assay, Sirt2. In kind it is biochemical. Here is the method:
as §1, §2

The next assay addresses T3, human Sirt3 (Homo sapiens, UniProt Q9NTG7).
T3 construct: Human Sirt3_118−395 was expressed and purified as described previously; made in house
T3 sequence (Q9NTG7 118-395): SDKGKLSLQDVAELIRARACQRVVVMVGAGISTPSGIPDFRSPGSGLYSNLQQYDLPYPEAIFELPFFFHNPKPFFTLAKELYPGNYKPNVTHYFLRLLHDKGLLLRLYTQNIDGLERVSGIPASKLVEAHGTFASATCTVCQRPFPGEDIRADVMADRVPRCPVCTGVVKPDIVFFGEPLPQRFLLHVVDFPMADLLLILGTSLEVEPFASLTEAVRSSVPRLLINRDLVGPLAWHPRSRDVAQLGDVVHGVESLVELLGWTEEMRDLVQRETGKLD
Nature of the assay: Homogeneous ZMAL-based fluorescence assay, Sirt3. It counts as biochemical. Here is the method: as §1, §2

In assay [3] the test system is γH2AX/H2AX levels in MEF cells. Description: γH2AX level determination by western blot. The following applies: 48 h, EX-527 10 μM, S1th 10 30 μM, S1th 12 20 μM, S1th 13 12 μM, SirReal2 30 μM. In kind it is cell-based, mouse. Here is the method: Sirt1 WT and KO MEFS cells were treated with 10 μM EX-527, 12 μM S1th 13 (6), 20 μM S1th 12 (5), 30 μM S1th 10 (7) and 30 μM SirReal2 [Sirt2 inhibitor, synthesized according to ([62])] for 48 h. Oxidative stress was induced using 10 μM Camptothecin 2 h. Whole-cell extracts were performed according to the Dignam protocol ([63]). Primary antibodies used for the western blot were anti-H2AX and anti-γH2AX (ab11175 and ab2893 resp., Abcam, UK). Densiometric analysis of the western blots was performed with Quantity One software (Bio-Rad Laboratories, Inc., USA).
Background: A western blot detects proteins with antibodies after separation by electrophoresis.

Setting [4] is: 2nd round of in vitro screening.

The inhibition is the share of the control response that was lost under treatment. The low end stands for little suppression, the high end for strong suppression. The IC50 is the concentration needed to halve the response being measured. Lower therefore signals higher potency.

Several values for one entry are separate records, joined by “and”; a condition that tells them apart may be missing. Identical values can stand only once. Entries after “also recorded” stand apart in the source; their conditions may differ.

As for `NC(=O)c1ccc[n+]([C@@H]2O[C@H](COP(=O)([O-])OP(=O)(O)OC[C@H]3O[C@@H](n4cnc5c(N)ncnc54)[C@H](O)[C@@H]3O)[C@@H](O)[C@H]2O)c1` [NAD^+], at Sirt1 [1], the “effect on Tm of Sirt1 (in words)” value is recorded as “slightly increased”. The same measure, in the same setting: next, `O=c1c2cccnc2sn1Cc1ccc(C(F)(F)F)cc1` [PU141]: “no reasonable melting curve is obtained”. For `CCCc1cc(=O)[nH]c(SCC(=O)Nc2cccc(SC#N)c2)n1` [S1th 1], the inhibition at 50 µM on Sirt1 [2] (50 µM, primary screen) is 82%; at human Sirt2 (setting [4]), 23%; against human Sirt3 (setting [4]) it was less than 10%. Further, half-maximal inhibition at Sirt1 [2] (setting [4]) (IC50) was put at 13 ± 0.6 µM. Take `N#CSc1cccc(NC(=O)c2ccc3c(c2)OCCO3)c1` [S1th 7]: the IC50 at Sirt1 [2] (3rd round) was 6.34 µM and 6.3 µM. Moreover, the inhibition at 50 µM against human Sirt2 (3rd round) and on human Sirt3 (3rd round) was less than 10% each time.

Take `O=C(Nc1ccccc1-c1cn2c(CN3CCNCC3)csc2n1)c1cnc2ccccc2n1` [SRT1720]: on Sirt1 [1], the “effect on Tm of Sirt1 (in words)” value is listed as “barely effected; also recorded: very small shift or no shift at all”. On to `Cc1cc(C)nc(SCC(=O)Nc2ncc(Cc3cccc4ccccc34)s2)n1` [SirReal2, reference compound], for which the “γH2AX/H2AX levels without Camptothecin” value in assay [3] is “does not affect”.

Take adenosine diphosphate ribose [ADPR]: on Sirt1 [1], the “effect on Tm of Sirt1 (in words)” value was “strongly increased” and the “stabilization (increase of Tm) of Sirt1” value is “up to 4 K”.
